From PubChem BioAssay AID256 (DTP/NCI, 2004)
Values joined by “and” are separate entries in the source; they are usually repeats but may differ in a detail not shown here. Equal values may be shown once. Toxic doses and inconclusive results are not listed.

Tested on: CD2F1 mice, L1210 leukemia ip, survival T/C
Assay: NCI In Vivo Anticancer Drug Screen. Data for tumor model L1210 Leukemia (intraperitoneal) in CD2F1 (CDF1) mice
Conditions: higher = longer survival
Summary of the method: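 Tumor-bearing mice (transplanted tumor) were split into treated and vehicle control groups, and the measured endpoint of each treated group was divided by that of its vehicle controls.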

For `O=c1n(CC2CO2)c(=O)n(CC2CO2)c(=O)n1CC1CO1` (configuration not stated), the T/C (endpoint: mean survival time, dose: 6.25 mg/kg/injection, schedule: Q01DX009 (ip), vehicle: suspension in saline) was 206 % of control and 123 % of control, the T/C (endpoint: mean survival time, dose: 12.5 mg/kg/injection, schedule: Q01DX009 (ip), vehicle: saline with Tween-80) was 166 % of control and 157 % of control and the T/C (endpoint: mean survival time, dose: 12.5 mg/kg/injection, schedule: Q01DX009 (ip), vehicle: suspension in saline) was 162 % of control. For the same molecule, the T/C (endpoint: mean survival time, dose: 20.0 mg/kg/injection, schedule: Q01DX009 (ip), vehicle: saline) was 178 % of control, the T/C (endpoint: mean survival time, dose: 25.0 mg/kg/injection, schedule: Q01DX009 (ip), vehicle: saline with Tween-80) was 291 % of control and the T/C (endpoint: mean survival time, dose: 25.0 mg/kg/injection, schedule: Q01DX009 (ip), vehicle: saline) was 151 % of control and 177 % of control and 158 % of control. The T/C (endpoint: mean survival time, dose: 25.0 mg/kg/injection, schedule: Q01DX009 (ip), vehicle: suspension in saline) was 276 % of control and 152 % of control, the T/C (endpoint: mean survival time, dose: 25.0 mg/kg/injection, schedule: Q04DX003 (ip), vehicle: saline) was 182 % of control and the T/C (endpoint: mean survival time, dose: 25.0 mg/kg/injection, schedule: Q04DX005 (ip), vehicle: saline) was 165 % of control. The T/C (endpoint: mean survival time, dose: 30.0 mg/kg/injection, schedule: Q01DX009 (ip), vehicle: saline) was 164 % of control, the T/C (endpoint: mean survival time, dose: 30.0 mg/kg/injection, schedule: Q01DX010 (ip), vehicle: saline) was 166 % of control and the T/C (endpoint: mean survival time, dose: 40.0 mg/kg/injection, schedule: Q01DX009 (ip), vehicle: saline) was 300 % of control and 109 % of control. For the same molecule, the T/C (endpoint: mean survival time, dose: 40.0 mg/kg/injection, schedule: Q01DX010 (ip), vehicle: saline) was 195 % of control, the T/C (endpoint: mean survival time, dose: 50.0 mg/kg/injection, schedule: Q01DX001 (ip), vehicle: saline) was 160 % of control and 205 % of control and the T/C (endpoint: mean survival time, dose: 50.0 mg/kg/injection, schedule: Q01DX009 (ip), vehicle: saline with Tween-80) was 170 % of control. The T/C (endpoint: mean survival time, dose: 50.0 mg/kg/injection, schedule: Q01DX009 (ip), vehicle: saline) was 151 % of control, the T/C (endpoint: mean survival time, dose: 50.0 mg/kg/injection, schedule: Q01DX009 (ip), vehicle: suspension in saline) was 94 % of control and the T/C (endpoint: mean survival time, dose: 50.0 mg/kg/injection, schedule: Q01DX010 (ip), vehicle: saline) was 219 % of control. The T/C (endpoint: mean survival time, dose: 50.0 mg/kg/injection, schedule: Q04DX003 (ip), vehicle: saline) was 187 % of control, the T/C (endpoint: mean survival time, dose: 50.0 mg/kg/injection, schedule: Q04DX005 (ip), vehicle: saline) was 259 % of control and 340 % of control and the T/C (endpoint: mean survival time, dose: 60.0 mg/kg/injection, schedule: Q01DX001 (ip), vehicle: saline) was 168 % of control and 202 % of control. The T/C (endpoint: mean survival time, dose: 60.0 mg/kg/injection, schedule: Q01DX009 (ip), vehicle: saline) was 467 % of control, the T/C (endpoint: mean survival time, dose: 70.0 mg/kg/injection, schedule: Q01DX001 (ip), vehicle: saline) was 291 % of control and the T/C (endpoint: mean survival time, dose: 75.0 mg/kg/injection, schedule: Q01DX009 (ip), vehicle: saline) was 91 % of control. For the same molecule, the T/C (endpoint: mean survival time, dose: 75.0 mg/kg/injection, schedule: Q04DX003 (ip), vehicle: saline) was 154 % of control, the T/C (endpoint: mean survival time, dose: 75.0 mg/kg/injection, schedule: Q04DX005 (ip), vehicle: saline) was 208 % of control and 581 % of control and the T/C (endpoint: mean survival time, dose: 80.0 mg/kg/injection, schedule: Q01DX001 (ip), vehicle: saline) was 202 % of control and 351 % of control. The T/C (endpoint: mean survival time, dose: 80.0 mg/kg/injection, schedule: Q01DX009 (ip), vehicle: saline) was 104 % of control, the T/C (endpoint: median survival time, dose: 5.0 mg/kg/injection, schedule: Q03HX024 (ip), vehicle: saline) was 167 % of control and the T/C (endpoint: median survival time, dose: 10.0 mg/kg/injection, schedule: Q03HX008 (ip), vehicle: saline) was 167 % of control. The T/C (endpoint: median survival time, dose: 10.0 mg/kg/injection, schedule: Q03HX016 (ip), vehicle: saline) was 176 % of control, the T/C (endpoint: median survival time, dose: 10.0 mg/kg/injection, schedule: Q03HX024 (ip), vehicle: saline) was 212 % of control and the T/C (endpoint: median survival time, dose: 12.5 mg/kg/injection, schedule: Q01DX001 (ip), vehicle: saline) was 121 % of control. For the same molecule, the T/C (endpoint: median survival time, dose: 12.5 mg/kg/injection, schedule: Q01DX001 (iv), vehicle: saline) was 101 % of control, the T/C (endpoint: median survival time, dose: 12.5 mg/kg/injection, schedule: Q01DX005 (ip), vehicle: saline) was 150 % of control and the T/C (endpoint: median survival time, dose: 12.5 mg/kg/injection, schedule: Q01DX005 (iv), vehicle: saline) was 113 % of control. For the same molecule, the T/C (endpoint: median survival time, dose: 12.5 mg/kg/injection, schedule: Q01DX009 (oral), vehicle: saline) was 105 % of control, the T/C (endpoint: median survival time, dose: 20.0 mg/kg/injection, schedule: Q01DX009 (ip), vehicle: saline) was 175 % of control and the T/C (endpoint: median survival time, dose: 20.0 mg/kg/injection, schedule: Q03HX008 (ip), vehicle: saline) was 637 % of control. The T/C (endpoint: median survival time, dose: 20.0 mg/kg/injection, schedule: Q03HX016 (ip), vehicle: saline) was 172 % of control, the T/C (endpoint: median survival time, dose: 20.0 mg/kg/injection, schedule: Q03HX024 (ip), vehicle: saline) was 116 % of control and the T/C (endpoint: median survival time, dose: 25.0 mg/kg/injection, schedule: Q01DX001 (iv), vehicle: saline) was 107 % of control. For the same molecule, the T/C (endpoint: median survival time, dose: 25.0 mg/kg/injection, schedule: Q01DX005 (ip), vehicle: saline) was 380 % of control, the T/C (endpoint: median survival time, dose: 25.0 mg/kg/injection, schedule: Q01DX009 (oral), vehicle: saline) was 110 % of control and the T/C (endpoint: median survival time, dose: 25.0 mg/kg/injection, schedule: Q04DX003 (ip), vehicle: saline) was 167 % of control. For the same molecule, the T/C (endpoint: median survival time, dose: 40.0 mg/kg/injection, schedule: Q01DX005 (ip), vehicle: saline) was 216 % of control, the T/C (endpoint: median survival time, dose: 40.0 mg/kg/injection, schedule: Q01DX009 (ip), vehicle: saline) was 253 % of control and 750 % of control and the T/C (endpoint: median survival time, dose: 40.0 mg/kg/injection, schedule: Q03HX016 (ip), vehicle: saline) was 160 % of control. For the same molecule, the T/C (endpoint: median survival time, dose: 50.0 mg/kg/injection, schedule: Q01DX001 (ip), vehicle: saline) was 160 % of control and 166 % of control, the T/C (endpoint: median survival time, dose: 50.0 mg/kg/injection, schedule: Q01DX005 (ip), vehicle: saline) was 750 % of control and the T/C (endpoint: median survival time, dose: 50.0 mg/kg/injection, schedule: Q01DX009 (ip), vehicle: saline) was 750 % of control. The T/C (endpoint: median survival time, dose: 50.0 mg/kg/injection, schedule: Q04DX003 (ip), vehicle: saline) was 253 % of control, the T/C (endpoint: median survival time, dose: 50.0 mg/kg/injection, schedule: Q04DX003 (oral), vehicle: saline) was 116 % of control and the T/C (endpoint: median survival time, dose: 50.0 mg/kg/injection, schedule: Q08DX002 (ip), vehicle: saline) was 187 % of control. The T/C (endpoint: median survival time, dose: 60.0 mg/kg/injection, schedule: Q01DX005 (ip), vehicle: saline) was 275 % of control, the T/C (endpoint: median survival time, dose: 60.0 mg/kg/injection, schedule: Q01DX009 (ip), vehicle: saline) was 178 % of control and the T/C (endpoint: median survival time, dose: 70.0 mg/kg/injection, schedule: Q01DX005 (ip), vehicle: saline) was 110 % of control. The T/C (endpoint: median survival time, dose: 100.0 mg/kg/injection, schedule: Q01DX001 (iv), vehicle: saline) was 100 % of control, the T/C (endpoint: median survival time, dose: 100.0 mg/kg/injection, schedule: Q01DX001 (oral), vehicle: saline) was 123 % of control and the T/C (endpoint: median survival time, dose: 100.0 mg/kg/injection, schedule: Q08DX002 (ip), vehicle: saline) was 122 % of control. For the same molecule, the T/C (endpoint: median survival time, dose: 150.0 mg/kg/injection, schedule: Q01DX005 (oral), vehicle: saline) was 116 % of control, the T/C (endpoint: median survival time, dose: 200.0 mg/kg/injection, schedule: Q01DX009 (oral), vehicle: saline) was 151 % of control and the T/C (endpoint: median survival time, dose: 200.0 mg/kg/injection, schedule: Q04DX003 (oral), vehicle: saline) was 191 % of control. For the same molecule, the T/C (endpoint: median survival time, dose: 200.0 mg/kg/injection, schedule: Q08DX002 (oral), vehicle: saline) was 163 % of control, the T/C (endpoint: median survival time, dose: 250.0 mg/kg/injection, schedule: Q01DX009 (oral), vehicle: saline) was 151 % of control and the T/C (endpoint: median survival time, dose: 250.0 mg/kg/injection, schedule: Q08DX002 (ip), vehicle: saline) was 160 % of control. For the same molecule, the T/C (endpoint: median survival time, dose: 300.0 mg/kg/injection, schedule: Q04DX003 (oral), vehicle: saline) was 221 % of control and 122 % of control, the T/C (endpoint: median survival time, dose: 300.0 mg/kg/injection, schedule: Q08DX002 (oral), vehicle: saline) was 185 % of control and the T/C (endpoint: median survival time, dose: 350.0 mg/kg/injection, schedule: Q01DX001 (ip), vehicle: saline) was 151 % of control. For the same molecule, the T/C (endpoint: median survival time, dose: 350.0 mg/kg/injection, schedule: Q04DX003 (oral), vehicle: saline) was 122 % of control, the T/C (endpoint: median survival time, dose: 350.0 mg/kg/injection, schedule: Q08DX002 (oral), vehicle: saline) was 119 % of control and the T/C (endpoint: median survival time, dose: 400.0 mg/kg/injection, schedule: Q04DX003 (oral), vehicle: saline) was 120 % of control. The T/C (endpoint: median survival time, dose: 450.0 mg/kg/injection, schedule: Q01DX001 (ip), vehicle: saline) was 160 % of control, the T/C (endpoint: median survival time, dose: 450.0 mg/kg/injection, schedule: Q04DX003 (oral), vehicle: saline) was 118 % of control and the T/C (endpoint: median survival time, dose: 450.0 mg/kg/injection, schedule: Q08DX002 (oral), vehicle: saline) was 118 % of control. For the same molecule, the T/C (endpoint: median survival time, dose: 500.0 mg/kg/injection, schedule: Q08DX002 (oral), vehicle: saline) was 123 % of control.

For `O=[N+]([O-])c1ccccc1N=C(c1ccccc1)N(O)c1ccccc1`, the T/C (endpoint: mean survival time, dose: 9.4 mg/kg/injection, schedule: Q01DX009 (ip), vehicle: saline with Tween-80) was 101 % of control, the T/C (endpoint: mean survival time, dose: 9.4 mg/kg/injection, schedule: Q04DX003 (ip), vehicle: saline with Tween-80) was 98 % of control and the T/C (endpoint: mean survival time, dose: 18.8 mg/kg/injection, schedule: Q01DX001 (ip), vehicle: saline) was 101 % of control. For the same molecule, the T/C (endpoint: mean survival time, dose: 18.8 mg/kg/injection, schedule: Q01DX009 (ip), vehicle: saline with Tween-80) was 104 % of control, the T/C (endpoint: mean survival time, dose: 18.8 mg/kg/injection, schedule: Q04DX003 (ip), vehicle: saline with Tween-80) was 100 % of control and the T/C (endpoint: mean survival time, dose: 37.5 mg/kg/injection, schedule: Q01DX001 (ip), vehicle: saline) was 102 % of control.
